The assay concerns RPEMYC^H2B-GFP cells. The experiment in a line: Phenotypic screening assay (mitotic arrest, polyploidy). Format: cell-based. Particulars: 1 nM to 30 μM; for IC50: read-out: Proliferative arrest (>50%). On the procedure:
We have previously developed a mechanism-informed phenotypic screening assay to identify novel antimitotic agents. Equipped with a prior understanding of the versatile functions of the chromosomal passenger protein (CPP) complex in orchestrating karyokinesis and cytokinesis, the screening assay is to score for phenotypes typically seen when the CPP complex is disabled. Specifically, the parameters for a positive hit are a temporary elevation of mitotic index (MI) at 24 hours of drug treatment and an accumulation of polyploid cells at 48 hours of drug treatment, indicative of mitotic arrest and cytokinetic failure respectively. These parameters exclude compounds that elicit only a prolonged arrest of cells in mitosis, a phenotype typically provoked by spindle toxins. The screening procedure is briefly summarized here. RPEMYC^H2B-GFP cells engineered to express a Histone 2B-EGFP fusion protein were passaged as batches of 96-well plates, 18-24 hours before exposure to the chemical compounds of the present disclosure at concentrations from 1 nM to 30 μM. At 24, 48 or 72 hours after initiation of treatment, cells were analyzed for either an arrest in mitosis or a change in DNA content by GE IN-Cell Analyzer 2000. As set forth in Table 2 below, a value of greater than or equal to 1 nM and less than or equal to 1.0 μM is marked “A”; a value greater than 1.00 μM and less than or equal to 10.0 μM is marked “B”; a value greater than 10.0 μM and less than or equal to 30.0 μM is marked “C”; and a value greater than 30.0 μM is marked “D.”

Setting [1] is: read-out: Min. Effective conc. for Polyploidy (≥5%).

Like-named read-outs stand apart in the source and are kept apart here.

For the compound `COC(=O)c1ccc2nccc(Oc3cc(OC)cc(-n4cccn4)c3)c2c1` [Compound 46, Methyl 4-(3-methoxy-5-(1H-pyrazol-1-yl)phenoxy)quinoline-6-carboxylate], the IC50 fell in the range of 1 to 1000 nM. Besides, under setting [1], the minimal effective concentration fell in the range of 0.001 to 1 µM. The minimal effective concentration (read-out: Mitotic Arrest (≥5%)) was in the range of 0.001 to 1 µM.

Take `COc1cc2nccc(Oc3cc(OC4CCOC4)cc(OC4CCOC4)c3)c2cc1C(N)=O` (stereo not shown) [Compound 82, 4-(3,5-bis((tetrahydrofuran-3-yl)oxy)phenoxy)-7-methoxyquinoline-6-carbonamide]: the minimal effective concentration by setting is: under setting [1], 1 to 10 µM; (read-out: Mitotic Arrest (≥5%)) 1 to 10 µM.

Take `COc1cc(N)cc(Oc2ccnc3ccc(Br)cc23)c1` [Compound 91, 3-((6-bromoquinolin-4-yl)oxy)-5-methoxyaniline]: the minimal effective concentration is, setting by setting: under setting [1], 0.001 to 1 µM; (read-out: Mitotic Arrest (≥5%)) 0.001 to 1 µM.

For the compound `COc1cc(NC(C)=O)cc(Oc2ccnc3cc(OC)c(C(N)=O)cc23)c1` [Compound 31, 4-(3-acetamido-5-methoxyphenoxy)-7-methoxyquinoline-6-carboxamide], the IC50 lay in the range of 1 to 1000 nM. Moreover, under setting [1], the minimal effective concentration was 0.001 to 1 µM. For the same compound, where the note is “read-out: Mitotic Arrest (≥5%)”, the minimal effective concentration is 0.001 to 1 µM.

As for `CNC(=O)c1cc2c(Oc3cc(OC)cc(-n4cccn4)c3)ccnc2cc1OC` [Compound 44, 7-Methoxy-4-(3-methoxy-5-(1H-pyrazol-1-yl)phenoxy)-N-methylquinoline-6-carboxamide], the IC50 was 1000 to 10000 nM. Also, the minimal effective concentration under setting [1] lay in the range of 1 to 10 µM. Also, where the note is “read-out: Mitotic Arrest (≥5%)”, the minimal effective concentration was 1 to 10 µM.

With `COc1cc2nccc(Oc3cc(Cl)cc(-n4cccn4)c3)c2cc1C(N)=O` [Compound 5, 4-(3-chloro-5-(1H-pyrazol-1-yl)phenoxy)-7-methoxyquinoline-6-carboxamide], the minimal effective concentration is, setting by setting: under setting [1], 1 to 10 µM; (read-out: Mitotic Arrest (≥5%)) 1 to 10 µM.

As to `COC(=O)c1cc(OC)cc(Oc2ncnc3cc(OC)c(OC)cc23)c1` [Example 24, methyl 3-((6,7-dimethoxyquinazolin-4-yl)oxy)-5-methoxybenzoate], the “Along with Cell Death” value is “C (a value greater than 10.0 μM and less than or equal to 30.0 μM)”; the “Min. Effective conc. for Polyploidy (≥5%)” value was “C (a value greater than 10.0 μM and less than or equal to 30.0 μM)”; the “Mitotic Arrest (≥5%)” value was “C (a value greater than 10.0 μM and less than or equal to 30.0 μM)”; the “Proliferative arrest (>50%)” value is “C (a value greater than 10.0 μM and less than or equal to 30.0 μM)”.

As to `COc1cc(OCC2CCOC2)cc(Oc2ccnc3cc(OC)c(C(N)=O)cc23)c1` (stereo not shown) [Compound 83, 7-methoxy-4-(3-methoxy-5-((tetrahydrofuran-3-yl)methoxy)phenoxy)quinoline-6-carboxamide], the minimal effective concentration was 0.001 to 1 µM under setting [1] and 0.001 to 1 µM (read-out: Mitotic Arrest (≥5%)).

As for `COc1cc(Oc2ccnc3ccccc23)cc(-c2nc(C)no2)c1` [Compound 13, 5-(3-methoxy-5-(quinolin-4-yloxy)phenyl)-3-methyl-oxadiazole], the IC50 was in the range of 1 to 1000 nM. Moreover, the minimal effective concentration under setting [1] is 0.001 to 1 µM. The minimal effective concentration (read-out: Mitotic Arrest (≥5%)) fell in the range of 0.001 to 1 µM.

`COc1cc(OC)cc(Oc2ccnc3cc(OC)c(C(N)=O)cc23)c1` [Compound 69, 4-(3,5-Dimethoxyphenoxy)-7-methoxyquinolin-6-carboxamide]: the IC50 is 1 to 1000 nM. In addition, the minimal effective concentration under setting [1] was in the range of 0.001 to 1 µM. Further, the minimal effective concentration (read-out: Mitotic Arrest (≥5%)) fell in the range of 0.001 to 1 µM.

Consider `COc1cc(Oc2ncnc3ccccc23)cc(-n2ccnc2)c1` [Compound 78], for which the IC50 lay within 1000 to 10000 nM. Under setting [1], the minimal effective concentration lay in the range of 1 to 10 µM. Under “read-out: Mitotic Arrest (≥5%)”, the minimal effective concentration lay in the range of 1 to 10 µM.

For `COc1cc(Oc2ccnc3cc(OC)c(C(N)=O)cc23)cc(O[C@@H]2CCOC2)c1` [Compound 81, (R)-7-methoxy-4-(3-methoxy-5-((tetrahydrofuran-3-yl)oxy)phenoxy)quinoline-6-carboxamide], the minimal effective concentration under setting [1] was 0.001 to 1 µM and the minimal effective concentration (read-out: Mitotic Arrest (≥5%)) lay within 0.001 to 1 µM.

Take `CCOc1cc(Oc2ccnc3ccc(C(N)=O)cc23)cc(-n2cccn2)c1` [Compound 65, 4-(3-Ethoxy-5-(MH-pyrazol-1-yl)phenoxy) quinoline-6-carboxamide]: the IC50 lay in the range of 1 to 1000 nM. Besides, the minimal effective concentration under setting [1] was in the range of 0.001 to 1 µM. Besides, for the setting “read-out: Mitotic Arrest (≥5%)”, the minimal effective concentration lay in the range of 0.001 to 1 µM.

Regarding `COc1cc(Oc2ccnc3ccc(C(N)=O)cc23)cc(O[C@@H]2CCOC2)c1` [Compound 3, (R)-4-(methoxy-5-((tetrahydrofuran-3-yl)oxy)phenoxy)quinoline-6-carboxamide], the minimal effective concentration fell in the range of 0.001 to 1 µM under setting [1] and 0.001 to 1 µM (read-out: Mitotic Arrest (≥5%)).

On to `CNC(=O)c1cc(OC)cc(Oc2ccnc3ccc(Br)cc23)c1` [Compound 72, 3-((6-Bromoquinolin-4-yl)oxy)-5-methoxy-N-methylbenzamide], for which the IC50 lay within 1 to 1000 nM. Moreover, the minimal effective concentration under setting [1] was in the range of 0.001 to 1 µM. Further, the minimal effective concentration (read-out: Mitotic Arrest (≥5%)) is 0.001 to 1 µM.

Consider `COc1cc(OC)cc(Oc2ccnc3ccc(Br)cc23)c1` [Compound 48, 6-Bromo-4-(3,5-dimethoxyphenoxy) quinoline], for which the IC50 fell in the range of 1 to 1000 nM. For the same compound, the minimal effective concentration under setting [1] lay within 0.001 to 1 µM. In addition, the minimal effective concentration (read-out: Mitotic Arrest (≥5%)) was 0.001 to 1 µM.

Take `COc1cc(Oc2ncnc3cc(OC)c(OC)cc23)cc(-n2ccnc2)c1` [Compound 79, 4-(3-(1H-Imidazol-1-yl)-5-methoxyphenoxy)-6,7-dimethoxyquinazoline]: the IC50 was 10000 to 30000 nM. The minimal effective concentration under setting [1] lay within 10 to 30 µM. In addition, the minimal effective concentration (read-out: Mitotic Arrest (≥5%)) fell in the range of 10 to 30 µM.

As for `CNC(=O)c1ccc2nccc(Oc3cc(OC)cc(-n4cccn4)c3)c2c1` [Compound 57, 4-(3-Methoxy-5-(1H-pyrazol-1-yl)phenoxy)-N-methylquinoline-6-carboxamide], the IC50 was in the range of 1 to 1000 nM. Besides, the minimal effective concentration under setting [1] was in the range of 0.001 to 1 µM. For the same compound, the minimal effective concentration (read-out: Mitotic Arrest (≥5%)) is 0.001 to 1 µM.

As to `COc1cc(Oc2ccnc3ccccc23)cc(-n2cnc(C)c2)c1` [Compound 77, 4-(3-Methoxy-5-(4-methyl-1H-imidazol-1-yl)phenoxy)quinoline], the IC50 was 1 to 1000 nM. For the same compound, the minimal effective concentration under setting [1] is 0.001 to 1 µM. Under “read-out: Mitotic Arrest (≥5%)”, the minimal effective concentration was 0.001 to 1 µM.

Take `COc1cc(Oc2ccnc3cc(OC)c(C(N)=O)cc23)cc(-n2nc(C)cc2C)c1` [Compound 86, 4-(3-(3,5-dimethyl-1H-pyrazol-1-yl)-5-methoxyphenoxy)-7-methoxyquinoline-6-carboxamide]: the minimal effective concentration is, setting by setting: under setting [1], 1 to 10 µM; (read-out: Mitotic Arrest (≥5%)) 1 to 10 µM.

In the case of `COc1cc(Oc2ccnc3cc(OC)c(C(N)=O)cc23)cc(-c2cnn(C)c2)c1` [Compound 66, 7-Methoxy-4-(3-methoxy-5-(1-methyl-H-pyrazol-4-yl)phenoxy)quinoline-6-carboxamide], the IC50 lay in the range of 1 to 1000 nM. Under setting [1], the minimal effective concentration lay within 0.001 to 1 µM. In addition, the minimal effective concentration (read-out: Mitotic Arrest (≥5%)) lay in the range of 0.001 to 1 µM.

As to `CCOc1cc(Oc2ccnc3ccc(Br)cc23)cc(C(=O)NC)c1` [Compound 68], the IC50 fell in the range of 1 to 1000 nM. Under setting [1], the minimal effective concentration was 0.001 to 1 µM. Also, under “read-out: Mitotic Arrest (≥5%)”, the minimal effective concentration was 0.001 to 1 µM.

As to `CNC(=O)c1ccc2nccc(Oc3cc(NC(C)=O)cc(OC)c3)c2c1` [Compound 53, 4-(3-Acetamido-5-methoxyphenoxy)-N-methylquinoline-6-carboxamide], the IC50 was in the range of 1 to 1000 nM. Besides, the minimal effective concentration under setting [1] is 0.001 to 1 µM. Moreover, the minimal effective concentration (read-out: Mitotic Arrest (≥5%)) lay within 0.001 to 1 µM.

`COc1cc(Oc2cc(C)nc3ccccc23)cc(-n2cccn2)c1` [Compound 96, 4-(3-methoxy-5-(1H-pyrazol-1-yl)phenoxy)-2-methylquinoline]: the minimal effective concentration fell in the range of 0.001 to 1 µM under setting [1] and 0.001 to 1 µM (read-out: Mitotic Arrest (≥5%)).

Turning to `COc1cc(Oc2ccnc3ccc(C(N)=O)cc23)cc(-n2cccn2)c1` [Compound 61, 4-(3-Methoxy-5-(1H-pyrazol-1-yl)phenoxy) quinolin-6-carbazamide], the IC50 was in the range of 1 to 1000 nM. Further, the minimal effective concentration under setting [1] was 0.001 to 1 µM. Also, under “read-out: Mitotic Arrest (≥5%)”, the minimal effective concentration fell in the range of 0.001 to 1 µM.

As for `COc1cc(Oc2ccnc3cc(OC)c(C(N)=O)cc23)cc(-c2ncccn2)c1` [Compound 62, 7-Methoxy-4-(3-methoxy-5-(pyridimin-2-yl)phenoxy) quinoline-6-carboxamide], the IC50 is 1 to 1000 nM. For the same compound, the minimal effective concentration under setting [1] was in the range of 0.001 to 1 µM. Besides, for the setting “read-out: Mitotic Arrest (≥5%)”, the minimal effective concentration was 0.001 to 1 µM.

Regarding `COc1cc(Oc2ccnc3ccc(Br)cc23)cc(OC2CCOC2)c1` (stereo not shown) [Compound 92, 6-bromo-4-(3-methoxy-5-((tetrahydrofuran-3-yl)oxy)phenoxy)quinoline], the minimal effective concentration by setting is: under setting [1], 0.001 to 1 µM; (read-out: Mitotic Arrest (≥5%)) 0.001 to 1 µM.

As for `COc1cc(Oc2ccnc3ccccc23)cc(C(F)(F)F)c1` [Compound 11], the IC50 fell in the range of 1000 to 10000 nM. Further, the minimal effective concentration under setting [1] fell in the range of 1 to 10 µM. In addition, the minimal effective concentration (read-out: Mitotic Arrest (≥5%)) was 1 to 10 µM.

`COc1cc(NC(C)=O)cc(Oc2ccnc3ccc(C(F)(F)F)cc23)c1` [Compound 55, N-(3-Methoxy-5-((6-(trifluoromethyl)quinolin-4-yl)oxy)phenyl)acetamide]: the IC50 was 1 to 1000 nM. Moreover, the minimal effective concentration under setting [1] was 0.001 to 1 µM. The minimal effective concentration (read-out: Mitotic Arrest (≥5%)) was in the range of 0.001 to 1 µM.

Values taken from US20240239806A1, “COMPOUNDS, COMPOSITIONS AND METHODS OF TREATING DISORDERS” (Chengdu Anticancer Bioscience, Ltd., priority 2021, published 2024).
